One assay concerns CT26 cells. Kind of assay: ICD in vitro, summary of the three hallmarks. In kind it is cell-based, mouse. On the procedure: A weak ICD was present in cells treated with 6.12 µM Os2 in the dark (limited translocation of CRT) and Ce6‐treated cells under 770 nm light (partial release of HMGB‐1).
Assay [1] deals with mouse fibroblast cells (NIH/3T3). Kind of assay: Resazurin cell viability assay, dark toxicity. Conditions: NIH3T3, NIH/3T3, dark. The assay is classed as cell-based. As to the method:
(§1) (100 U ml−1), streptomycin (100 U ml−1), and 1% L-glutamine. The murine fibrosarcom a (MCA205) cells were cultured in RPMI 1640 medium with 10% fetal bovine serum (FBS), penicillin (100 U ml−1), streptomycin (100 U ml−1), and 1% L-glutamine. All cells were incubated at 37 °C in a humidified atmosphere with 5 % CO2.
(§2) Normoxia. The in vitro viability of cells exposed to the complexes was determined using a resazurin assay. C ells were seeded in 96-well plates at densities of 4,000 cells/well for CT26, MC A205 and U-87 MG cells, and 8,000 cells/well for MRC-5 and NIH/3T3 cells. A fter 24 h of growth at 37 °C wit h 5% CO2, the medium was replaced with fresh medium containing various concentrations of the compounds . Following a 4- h incubation in the dark, the medium was refres hed , and the plates were exposed to irradiation usinga LUM OS -BIO photoreactor (At las Photonics).N on- ir rad iated plates were similarly refr eshed with medium and kept in the dark for the same duration. After a 40- h r ecov ery period, a f reshly pr epar ed resazurin solution (0.2 mg/mL) was added to each well, and the plates were left in the dark for 4 h before analysis on a B i o Te k Cytation 5 Cell Imaging Multimode Reader (Agil ent Technologies).
(§3) Hypoxia.Hypoxia cells were from well -grown normoxia cells and cultured for at least two weeks before use. […]
Background: Alamar Blue is a resazurin reagent that responds to reducing activity.

For assay [2], the system named is human fibroblast cells (MRC-5). Nature of the assay: Resazurin cell viability assay, dark toxicity. The assay is classed as cell-based. Conditions: MRC5, MRC-5, dark. On the procedure: as §1, §2, §3
Assay [3] relates to mouse fibrosarcoma (MCA205) cells. Nature of the assay: Resazurin cell viability assay, phototoxicity. The assay is classed as cell-based. Conditions: MCA-205, light or radiation study, 1 h, MCA205, 740 nm, 60 min, 12.60 J/cm2. On the procedure:
as §1
as §2, with “Technologies). […]” for “Technologies).”

Assay [4] deals with mouse colon adenocarcinoma (CT-26) cells. Kind of assay: Resazurin cell viability assay, (photo)cytotoxicity under hypoxia (1% O2). In kind it is cell-based. On the procedure: as §1
as §2, with “Following a 4- h incubation in the dark, the medium was refres hed , and the plates were exposed to irradiation usinga LUM OS -BIO photoreactor (At las Photonics).N on- ir rad iated plates were similarly refr eshed with medium and kept in the dark for the same duration.” left out, “Technologies). […]” for “Technologies).”
Non-irradiat ed plates were similarly refreshed with medium and k ept in th e d ark fo r the same duration. After a 40 -h recovery period, a f res hly prepar ed resazurin solution (0.2 mg/mL) was added to each well, and the plates were left in the dark for 4 h before analysis on a BioTek Cytation 5 Cell Imaging Multimode Reader (Agilent […]

SMILES strings stand for the structures. Read-outs that look alike come from different tables or passages of the source. A value given as a limit tells only on which side of the number the result lay.

Take `C=Cc1c(C)c2cc3nc(c(CC(=O)O)c4[nH]c(cc5nc(cc1[nH]2)C(C)=C5CC)c(C)c4C(=O)O)[C@@H](CCC(=O)O)[C@@H]3C` [Ce6, chlorin e6]: the “ICD (all three hallmarks)” value is listed as “weak ICD” in the assay on CT26 cells (CT26, 770 nm light) and “strong ICD” with CT26 cells (CT26, illumination at 740 nm). In addition, the IC50 – broadly, the midpoint of a concentration-inhibition curve – is > 100 µM in assay [1]; > 100 µM in assay [2]; 1.77 ± 0.38 µM in assay [3]; > 100 µM in assay [4] (CT26, CT-26, hypoxia (1% O2), dark, read-out: IC50 Dark); 5.63 ± 0.41 µM in assay [4] (CT26, light or radiation study, 1 h, CT-26, hypoxia (1% O2), 740 nm, 60 min, 12.60 J/cm2, read-out: IC50 740 nm).

The record behind these values is article PMC13327620, “A Deep‐Red‐Absorbing Osmium(II) Complex as a Photosensitizer for Photodynamic Therapy Inducing Immunogenic Cell Death” (Angewandte Chemie (International Ed. in English), 2026).
